This note sets out measurements from patent US12139520B2 (priority 2020, dated 2024).

Bridge positions count the residues as written; N and C are the ends. Square brackets hold non-standard residues; d marks the D form. Peptide text beside a SMILES is read from it. Hyp = O=C(O)[C@@H]1C[C@@H](O)CN1

Data set [1] is described as follows: Physical stability of peptide analogues (Thioflavin T fibrillation). It is filed as physicochemical. Particulars: maximum ThT signal normalized between hAMY maximum and buffer background; 40° C., shaking, four days; pH 7 per table title. Summed up:
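Maximum ThT emission at 480 nm, after LOESS smoothing, is given as percent of the span from buffer background to hAMY. Conditions: 50 mM buffer at pH 4 or 7, 4 μM dye, 40 °C, repeated shaking, readings every 10 min for four days.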

The target in data set [2] is T1, hAMY3 receptor (Homo sapiens, UniProt O60896+P30988).
T1 sequence (P30988 25-474): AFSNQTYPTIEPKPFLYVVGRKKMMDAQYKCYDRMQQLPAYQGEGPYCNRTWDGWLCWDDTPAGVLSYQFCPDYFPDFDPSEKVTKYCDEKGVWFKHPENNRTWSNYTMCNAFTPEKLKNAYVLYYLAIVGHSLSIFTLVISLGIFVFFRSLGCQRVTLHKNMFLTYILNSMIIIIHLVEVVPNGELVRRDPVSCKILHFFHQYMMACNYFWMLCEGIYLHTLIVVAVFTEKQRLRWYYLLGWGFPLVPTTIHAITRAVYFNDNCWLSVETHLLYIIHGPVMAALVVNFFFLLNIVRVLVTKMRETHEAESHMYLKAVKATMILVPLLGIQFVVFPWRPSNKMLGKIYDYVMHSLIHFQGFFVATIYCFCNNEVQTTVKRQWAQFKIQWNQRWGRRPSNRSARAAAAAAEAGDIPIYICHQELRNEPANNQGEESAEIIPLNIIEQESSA
T1 sequence (O60896 24-148 partner): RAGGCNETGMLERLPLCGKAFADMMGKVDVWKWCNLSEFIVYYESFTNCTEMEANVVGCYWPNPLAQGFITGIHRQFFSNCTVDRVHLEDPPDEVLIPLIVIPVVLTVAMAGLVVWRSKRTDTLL
The data set can be described thus: cAMP assay for in vitro receptor activation, hAMY3-R. It is filed as cell-based. Particulars: cAMP assay, hAMY3 receptor; read-out: hAMY3R EC50. Summed up:
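Read-out is TR-FRET cAMP signal, recorded one hour after reagent addition, following 30 min room-temperature stimulation of stable hAMY3 cells with graded compound doses in casein/IBMX (0.5 mM) buffer.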
For orientation: Cyclic AMP is a second messenger, typically raised through Gs and lowered through Gi signalling.

For orientation: EC50 means the midpoint of the concentration-response curve. `CC[C@H](C)[C@H](NC(=O)[C@H](CCC(N)=O)NC(=O)[C@H](Cc1c[nH]cn1)NC(=O)[C@H](C)NC(=O)[C@H](CC(C)C)NC(=O)[C@H](Cc1c[nH]c2ccccc12)NC(=O)[C@H](CCC(N)=O)NC(=O)[C@@H](NC(=O)[C@@H](NC(=O)[C@@H]1CSSC[C@H](NC(=O)CN)C(=O)N[C@@H](CCCNC(=N)N)C(=O)N[C@@H](Cc2ccccc2)C(=O)NCC(=O)N[C@@H]([C@@H](C)O)C(=O)N1)[C@@H](C)O)C(C)C)C(=O)N[C@@H](Cc1ccc(O)cc1)C(=O)N[C@@H](CCC(N)=O)C(=O)N[C@@H](Cc1ccccc1)C(=O)N[C@H](C(=O)N[C@@H](CC(=O)O)C(=O)N[C@@H](CCCCN)C(=O)N[C@@H](CC(=O)O)C(=O)N[C@@H](CCCCN)C(=O)N[C@@H](CC(=O)O)C(=O)N[C@@H](CC(N)=O)C(=O)N[C@H](C(=O)N[C@@H](C)C(=O)N1CCC[C@H]1C(=O)N[C@@H](CCCNC(=N)N)C(=O)N[C@@H](CO)C(=O)N[C@@H](CC(N)=O)C(=O)N[C@H](C(=O)N[C@@H](CO)C(=O)N1CCC[C@H]1C(=O)N[C@@H](CCC(N)=O)C(=O)NCC(=O)N[C@@H](Cc1ccc(O)cc1)C(N)=O)C(C)C)C(C)C)[C@@H](C)O` [compound 345] (H-GCRFGTCTVQWLAHQIYQFTDKDKDNVAPRSNVSPQGY-NH2; disulfide 2-7; N-terminus assumed): in data set [1], the “Max ThT signal (%)” value was found to be 3.250%. Besides, the concentration for a half-maximal effect (EC50) in data set [2] is 0.051 nM.
As to `CC[C@H](C)[C@H](NC(=O)[C@H](CC(N)=O)NC(=O)[C@H](CO)NC(=O)[C@H](CCCNC(=N)N)NC(=O)[C@@H]1CCCN1C(=O)[C@H](C)NC(=O)[C@@H](NC(=O)[C@H](CC(N)=O)NC(=O)[C@H](CC(=O)O)NC(=O)[C@H](CCCCN)NC(=O)[C@H](CC(=O)O)NC(=O)[C@H](CCCCN)NC(=O)[C@H](CC(=O)O)NC(=O)[C@@H](NC(=O)[C@H](Cc1ccccc1)NC(=O)[C@H](CCC(N)=O)NC(=O)[C@H](Cc1ccc(O)cc1)NC(=O)[C@@H](NC(=O)[C@H](CCC(N)=O)NC(=O)[C@H](Cc1c[nH]cn1)NC(=O)[C@H](C)NC(=O)[C@H](CC(C)C)NC(=O)[C@H](Cc1c[nH]c2ccccc12)NC(=O)[C@H](CCC(N)=O)NC(=O)[C@@H](NC(=O)[C@@H](NC(=O)[C@@H]1CSSC[C@H](NC(=O)CN)C(=O)N[C@@H](CCCNC(=N)N)C(=O)N[C@@H]([C@@H](C)O)C(=O)NCC(=O)N[C@@H]([C@@H](C)O)C(=O)N1)[C@@H](C)O)C(C)C)[C@@H](C)CC)[C@@H](C)O)C(C)C)C(=O)NCC(=O)N1CCC[C@H]1C(=O)N[C@@H](CC(N)=O)C(=O)NCC(=O)N1C[C@H](O)C[C@H]1C(N)=O` [compound 352] (H-GCRTGTCTVQWLAHQIYQFTDKDKDNVAPRSNIGPNG[Hyp]-NH2; disulfide 2-7; N-terminus assumed), the “Max ThT signal (%)” value in data set [1] was 25.800%. The half-maximal effective concentration (EC50) in data set [2] was found to be 0.04 nM.
Consider `CC[C@H](C)[C@H](NC(=O)[C@H](CCC(N)=O)NC(=O)[C@H](Cc1c[nH]cn1)NC(=O)[C@H](C)NC(=O)[C@H](CC(C)C)NC(=O)[C@H](Cc1c[nH]c2ccccc12)NC(=O)[C@H](CCC(N)=O)NC(=O)[C@@H](NC(=O)[C@@H](NC(=O)[C@@H]1CSSC[C@H](NC(=O)CN)C(=O)N[C@@H](CCCNC(=N)N)C(=O)N[C@@H](Cc2ccccc2)C(=O)NCC(=O)N[C@@H]([C@@H](C)O)C(=O)N1)[C@@H](C)O)C(C)C)C(=O)N[C@@H](Cc1ccc(O)cc1)C(=O)N[C@@H](CCC(N)=O)C(=O)N[C@@H](Cc1ccccc1)C(=O)N[C@H](C(=O)N[C@@H](CC(=O)O)C(=O)N[C@@H](CCCCN)C(=O)N[C@@H](CC(=O)O)C(=O)N[C@@H](CCCCN)C(=O)N[C@@H](CC(=O)O)C(=O)N[C@@H](CC(N)=O)C(=O)N[C@H](C(=O)N[C@@H](C)C(=O)N1CCC[C@H]1C(=O)N[C@@H](CCCNC(=N)N)C(=O)N[C@@H](CO)C(=O)N[C@@H](CCCCN)C(=O)N[C@H](C(=O)NCC(=O)N1CCC[C@H]1C(=O)N[C@@H](CCC(N)=O)C(=O)NCC(=O)N1C[C@H](O)C[C@H]1C(N)=O)C(C)C)C(C)C)[C@@H](C)O` [compound 353] (H-GCRFGTCTVQWLAHQIYQFTDKDKDNVAPRSKVGPQG[Hyp]-NH2; disulfide 2-7; N-terminus assumed), for which the “Max ThT signal (%)” value in data set [1] came to 30.300%. Besides, in data set [2], the 50% effective concentration (EC50) stood at 0.027 nM.
Regarding `CC[C@H](C)[C@H](NC(=O)[C@H](CCC(N)=O)NC(=O)[C@H](Cc1c[nH]cn1)NC(=O)[C@H](C)NC(=O)[C@H](CC(C)C)NC(=O)[C@H](CCCNC(=N)N)NC(=O)[C@H](CCC(N)=O)NC(=O)[C@@H](NC(=O)[C@@H](NC(=O)[C@@H]1CSSC[C@H](NC(=O)CN)C(=O)N[C@@H](CCCNC(=N)N)C(=O)N[C@@H](Cc2ccccc2)C(=O)NCC(=O)N[C@@H]([C@@H](C)O)C(=O)N1)[C@@H](C)O)C(C)C)C(=O)N[C@@H](Cc1ccc(O)cc1)C(=O)N[C@@H](CCC(N)=O)C(=O)N[C@@H](Cc1ccccc1)C(=O)N[C@H](C(=O)N[C@@H](CC(=O)O)C(=O)N[C@@H](CCCCN)C(=O)N[C@@H](CC(=O)O)C(=O)N[C@@H](CCCCN)C(=O)N[C@@H](CC(=O)O)C(=O)N[C@@H](CC(N)=O)C(=O)N[C@H](C(=O)N[C@@H](C)C(=O)N1CCC[C@H]1C(=O)N[C@@H](CCCNC(=N)N)C(=O)N[C@H](C(=O)N[C@@H](CC(N)=O)C(=O)N[C@H](C(=O)NCC(=O)N1CCC[C@H]1C(=O)N[C@@H](CCC(N)=O)C(=O)NCC(=O)N[C@@H](Cc1ccc(O)cc1)C(N)=O)C(C)C)[C@@H](C)O)C(C)C)[C@@H](C)O` [compound 362] (H-GCRFGTCTVQRLAHQIYQFTDKDKDNVAPRTNVGPQGY-NH2; disulfide 2-7), the “Max ThT signal (%)” value in data set [1] is 8.900%. The EC50 in data set [2] turned out to be 0.007 nM.
Take `CC[C@H](C)[C@H](NC(=O)[C@H](CCC(N)=O)NC(=O)[C@H](Cc1c[nH]cn1)NC(=O)[C@H](C)NC(=O)[C@H](CC(C)C)NC(=O)[C@H](CCCNC(=N)N)NC(=O)[C@H](CCC(N)=O)NC(=O)[C@@H](NC(=O)[C@@H](NC(=O)[C@@H]1CSSC[C@H](NC(=O)CN)C(=O)N[C@@H](CCCNC(=N)N)C(=O)N[C@@H](Cc2ccccc2)C(=O)NCC(=O)N[C@@H]([C@@H](C)O)C(=O)N1)[C@@H](C)O)C(C)C)C(=O)N[C@@H](Cc1ccc(O)cc1)C(=O)N[C@@H](CCC(N)=O)C(=O)N[C@@H](Cc1ccccc1)C(=O)N[C@H](C(=O)N[C@@H](CC(=O)O)C(=O)N[C@@H](CCCCN)C(=O)N[C@@H](CC(=O)O)C(=O)N[C@@H](CCCCN)C(=O)N[C@@H](CC(=O)O)C(=O)N[C@@H](CC(N)=O)C(=O)N[C@H](C(=O)N[C@@H](C)C(=O)N1CCC[C@H]1C(=O)N[C@@H](CCCNC(=N)N)C(=O)N[C@H](C(=O)N[C@@H](CC(N)=O)C(=O)N[C@H](C(=O)N[C@@H](CO)C(=O)N1CCC[C@H]1C(=O)N[C@@H](CC(N)=O)C(=O)NCC(=O)N[C@@H](Cc1ccc(O)cc1)C(N)=O)[C@@H](C)CC)[C@@H](C)O)C(C)C)[C@@H](C)O` [compound 366] (H-GCRFGTCTVQRLAHQIYQFTDKDKDNVAPRTNISPNGY-NH2; disulfide 2-7; N-terminus assumed): the “Max ThT signal (%)” value in data set [1] was found to be 3.300%. Besides, the EC50 in data set [2] was 0.013 nM.
Regarding `CC[C@H](C)[C@H](NC(=O)[C@H](CCC(N)=O)NC(=O)[C@H](Cc1c[nH]cn1)NC(=O)[C@H](C)NC(=O)[C@H](CC(C)C)NC(=O)[C@H](CCCNC(=N)N)NC(=O)[C@H](CCC(N)=O)NC(=O)[C@@H](NC(=O)[C@@H](NC(=O)[C@@H]1CSSC[C@H](NC(=O)CN)C(=O)N[C@@H](CCCNC(=N)N)C(=O)N[C@@H](Cc2ccccc2)C(=O)NCC(=O)N[C@@H]([C@@H](C)O)C(=O)N1)[C@@H](C)O)C(C)C)C(=O)N[C@@H](Cc1ccc(O)cc1)C(=O)N[C@@H](CCC(N)=O)C(=O)N[C@@H](Cc1ccccc1)C(=O)N[C@H](C(=O)N[C@@H](CC(=O)O)C(=O)N[C@@H](CCCCN)C(=O)N[C@@H](CC(=O)O)C(=O)N[C@@H](CCCCN)C(=O)N[C@@H](CC(=O)O)C(=O)N[C@@H](CC(N)=O)C(=O)N[C@H](C(=O)N[C@@H](C)C(=O)N1CCC[C@H]1C(=O)N[C@@H](CCCNC(=N)N)C(=O)N[C@@H](CO)C(=O)N[C@@H](CC(N)=O)C(=O)N[C@H](C(=O)NCC(=O)N1CCC[C@H]1C(=O)N[C@@H](CC(N)=O)C(=O)NCC(=O)N[C@@H](Cc1ccc(O)cc1)C(N)=O)C(C)C)C(C)C)[C@@H](C)O` [compound 373] (H-GCRFGTCTVQRLAHQIYQFTDKDKDNVAPRSNVGPNGY-NH2; disulfide 2-7; N-terminus assumed), the “Max ThT signal (%)” value in data set [1] is recorded as 18.000%. Also, the EC50 in data set [2] amounted to 0.02 nM.
